Values quoted from earlier work, collected in patent US20040023994A1 (priority 2002, published 2004).

What was measured:
[1] = system: UACC-62; conditions: UACC-62, Melanoma, NCI database, cited from earlier work
[2] = system: NCI-H23; conditions: NCI-H23, Non-Small Cell Lung, NCI database, cited from earlier work
[3] = system: MALME-3M; conditions: Melanoma, NCI database, cited from earlier work
[4] = system: MDA-N; conditions: Breast, NCI database, cited from earlier work
[5] = system: SF-268; conditions: SF-268, CNS, NCI database, cited from earlier work
[6] = system: KM12; conditions: KM12, Colon, NCI database, cited from earlier work
[7] = system: SK-MEL-2; conditions: SK-MEL-2, Melanoma, NCI database, cited from earlier work
[8] = system: SK-MEL-5; conditions: SK-MEL-5, Melanoma, NCI database, cited from earlier work
[9] = system: HS 578T; conditions: Breast, NCI database, cited from earlier work
[10] = system: LOX IMVI; conditions: Melanoma, NCI database, cited from earlier work
[11] = system: SNB-75; conditions: SNB-75, CNS, NCI database, cited from earlier work
[12] = system: MDA-MB-231/ATCC; conditions: Breast, NCI database, cited from earlier work
[13] = system: HCT-15; conditions: HCT-15, Colon, NCI database, cited from earlier work
[14] = system: UO-31; conditions: UO-31, Renal, NCI database, cited from earlier work
[15] = system: CCRF-CEM; conditions: Leukemia, NCI database, cited from earlier work
[16] = read-out: LC50 (the source's name)

For Sc1ncnc2nc[nH]c12 [6-MP, 6-mercaptopurine], the GI50 [1] is given as 1.63 µM, the TGI [1] is given as >100 µM and the CC50 [1, 16] is given as > 100 µM. The GI50 [2] was 3.74 µM, the TGI [2] was >100 µM and the CC50 [2, 16] was > 100 µM. For the same compound, the CC50 [3, 16] was > 100 µM, the GI50 [3] was 4.28 µM and the TGI [3] was >100 µM. For the same compound, the CC50 [4, 16] was > 100 µM, the GI50 [4] was 1.5 µM and the TGI [4] was >100 µM. The GI50 [5] was 4.03 µM, the TGI [5] was >100 µM and the CC50 [5, 16] was > 100 µM. For the same compound, the GI50 [6] was 7.31 µM, the TGI [6] was >100 µM and the CC50 [6, 16] was > 100 µM. For the same compound, the GI50 [7] was 5.81 µM, the TGI [7] was >100 µM and the CC50 [7, 16] was > 100 µM. For the same compound, the GI50 [8] was 8.59 µM, the TGI [8] was >100 µM and the CC50 [8, 16] was > 100 µM. For the same compound, the CC50 [9, 16] was > 100 µM, the GI50 [9] was 15.7 µM and the TGI [9] was >100 µM. The CC50 [10, 16] was > 100 µM, the GI50 [10] was 0.35 µM and the TGI [10] was >100 µM. For the same compound, the GI50 [11] was 7.93 µM, the TGI [11] was >100 µM and the CC50 [11, 16] was > 100 µM. For the same compound, the CC50 [12, 16] was > 100 µM, the GI50 [12] was 16.4 µM and the TGI [12] was >100 µM. The GI50 [13] was 4.38 µM, the TGI [13] was >100 µM and the CC50 [13, 16] was > 100 µM. For the same compound, the GI50 [14] was 6.52 µM, the TGI [14] was >100 µM and the CC50 [14, 16] was > 100 µM. For the same compound, the CC50 [15, 16] was > 100 µM, the GI50 [15] was 1.22 µM and the TGI [15] was >100 µM.
